In ChEMBL document CHEMBL5154836, “4,5-Dihydroxypyrimidine Methyl Carboxylates, Carboxylic Acids, and Carboxamides as Inhibitors of Human Cytomegalovirus pUL89 Endonuclease” (J Med Chem, 2022):
≈ marks a conversion by molar mass, not a printed value.

Experiments:
[1] = target: T1, Tripartite terminase subunit 3 (Human betaherpesvirus 5, UniProt P16732)
T1 sequence (P16732 whole entry): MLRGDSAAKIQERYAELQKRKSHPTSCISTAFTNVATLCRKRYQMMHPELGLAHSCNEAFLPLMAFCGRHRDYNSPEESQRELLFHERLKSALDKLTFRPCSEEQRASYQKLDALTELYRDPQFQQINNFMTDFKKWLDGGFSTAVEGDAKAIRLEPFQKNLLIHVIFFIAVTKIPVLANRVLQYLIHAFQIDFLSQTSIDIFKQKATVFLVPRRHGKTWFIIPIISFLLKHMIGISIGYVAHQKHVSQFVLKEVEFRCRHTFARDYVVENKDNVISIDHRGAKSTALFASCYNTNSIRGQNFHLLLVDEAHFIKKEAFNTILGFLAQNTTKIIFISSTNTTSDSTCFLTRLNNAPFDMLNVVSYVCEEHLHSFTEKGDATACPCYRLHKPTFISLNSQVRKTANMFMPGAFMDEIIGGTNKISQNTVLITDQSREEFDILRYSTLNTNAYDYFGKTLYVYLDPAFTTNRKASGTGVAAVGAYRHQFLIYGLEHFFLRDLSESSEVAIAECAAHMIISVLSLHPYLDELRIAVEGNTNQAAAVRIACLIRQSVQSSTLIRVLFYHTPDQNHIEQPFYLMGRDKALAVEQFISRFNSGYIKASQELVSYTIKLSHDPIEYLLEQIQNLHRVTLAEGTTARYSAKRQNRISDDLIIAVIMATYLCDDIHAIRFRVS

HFF = test: Cytotoxicity against HFF cells assessed as cell viability incubated for 168 hrs by MTS-based Cell Titer assay; assay type: toxicity; conditions: human
[2] = Aqueous solubility of the compound in DPBS at pH 7.2 incubated for 72 hrs by LC-MS/MS analysis; assay type: physicochemical
[3] = Stability of compound in human plasma as compound remaining measured for 6 hrs by LC-MS/MS analysis; assay type: ADME, cell-free; conditions: read-out: Stability
[4] = Stability of compound in CD-1 mouse plasma as compound remaining measured for 6 hrs by LC-MS/MS analysis; assay type: ADME, cell-free; conditions: read-out: Stability
[5] = human, plasma, 24 h
[6] = mouse, plasma, 24 h
[7] = human, microsomes, 1 h
Description: Stability in human liver microsomes assessed as half life measured upto 60 mins in presence of NADPH by LC-MS/MS analysis

[8] = mouse, microsomes, 1 h
Description: Stability in mouse liver microsomes assessed as half life measured upto 60 mins in presence of NADPH by LC-MS/MS analysis

[9] = Apparent permeability coefficient of the compound incubated for 5 hrs by LC-MS/MS analysis based PAMPA method; assay type: ADME

Row | SMILES | IC50 [1] [nM] | also measured
1 | O=C(NCc1ccc(F)c(F)c1)c1nc(-c2cccs2)[nH]c(=O)c1O | 790 | 
2 | O=C(NCc1ccc(F)cc1)c1nc(-c2cccs2)nc(O)c1O | 700 | 
3 | O=C(NCc1ccc(Cl)cc1)c1nc(-c2cccs2)nc(O)c1O | 1300 | 
4 | COC(=O)c1nc(-c2ccco2)[nH]c(=O)c1O | 3000 | 
5 | COC(=O)c1nc(-c2ccccc2)[nH]c(=O)c1O | 1100 | 
6 | COC(=O)c1nc(-c2ccc(-c3ccccc3)cc2)[nH]c(=O)c1O | 780 | 
7 | O=C(O)c1nc(Cc2ccc(F)cc2)[nH]c(=O)c1O | 740 | 
8 | Cc1nc(C(=O)NCc2ccc(Cl)c(Cl)c2)c(O)c(=O)[nH]1 | 2800 | 
9 | COC(=O)c1nc(Cc2ccc(F)cc2F)[nH]c(=O)c1O | 760 | 
10 | O=C(NCc1ccc(C(F)(F)F)cc1)c1nc(-c2cccs2)[nH]c(=O)c1O | 3000 | 
11 | O=C(O)c1nc(-c2cccs2)nc(O)c1O |  | CC50 (HFF): > 100000 nM; solubility thermodynamic at 72 h [2]: 1480 µM (≈ 352 µg/mL); remaining at 6 h [3]: > 94%; remaining at 6 h [4]: > 94%; t1/2 [5]: > 24 h; t1/2 [6]: > 24 h; t1/2 [7]: > 120 h; t1/2 [8]: > 120 h
12 | COC(=O)c1nc(Cc2ccc(Cl)c(Cl)c2)[nH]c(=O)c1O | 2100 | permeability [9]: 3.1 10^-6 cm/s
13 | O=C(O)c1nc(Cc2ccc(Cl)cc2Cl)[nH]c(=O)c1O | 3800 | 
14 | Cc1ccsc1-c1nc(O)c(O)c(C(=O)O)n1 | 1400 | 
15 | O=C(O)c1nc(Cc2ccc(F)cc2F)[nH]c(=O)c1O | 1400 | 
16 | O=C(O)c1nc(-c2ccsc2)nc(O)c1O | 2700 | 
17 | O=C(O)c1nc(Cc2cccs2)[nH]c(=O)c1O | 1700 | 
18 | O=C(O)c1nc(Cc2ccc(F)c(F)c2)[nH]c(=O)c1O | 870 | 
19 | Cc1ccc(Cc2nc(C(=O)O)c(O)c(=O)[nH]2)cc1 | 920 | permeability [9]: 0.07 10^-6 cm/s
20 | COC(=O)c1nc(-c2ccc(F)cc2)[nH]c(=O)c1O | 860 | 
21 | COc1ccc(CNC(=O)c2nc(C)[nH]c(=O)c2O)cc1 | 590 | permeability [9]: 12.4 10^-6 cm/s
22 | COC(=O)c1nc(-c2cccs2)nc(O)c1O | 880 | permeability [9]: 0.9 10^-6 cm/s
23 | Cc1nc(C(=O)O)c(O)c(=O)[nH]1 | 2100 | 
24 | O=C(O)c1nc(Cc2ccsc2)[nH]c(=O)c1O | 2400 | 
25 | O=C(O)c1nc(-c2ccc(-c3ccccc3)cc2)[nH]c(=O)c1O | 1500 | permeability [9]: 0.06 10^-6 cm/s
26 | O=C(O)c1nc(-c2ccc(F)cc2)[nH]c(=O)c1O | 540 | 
27 | Cc1ccc(CNC(=O)c2nc(-c3cccs3)nc(O)c2O)cc1 | 1900 | 
28 | O=C(O)c1nc(Cc2ccc(Cl)c(Cl)c2)nc(O)c1O | 670 | solubility thermodynamic at 72 h [2]: ≥ 3170 µM; permeability [9]: 0.05 10^-6 cm/s; remaining at 6 h [3]: > 94%; remaining at 6 h [4]: > 94%; t1/2 [5]: > 24 h; t1/2 [6]: > 24 h; t1/2 [7]: > 120 h; t1/2 [8]: > 120 h
29 | COC(=O)c1nc(Cc2ccc(Cl)cc2Cl)[nH]c(=O)c1O | 5700 | 
